Calls of active or inactive are those of the source.
How the values were obtained:
[1] = target: T1, Endoribonuclease toxin MazF (Escherichia coli K-12, UniProt P0AE70); test: substrate-only fluorescence increase artefacts – biochemical, single-stranded RNase substrate, counter-screen for MazEF activator project, dose response (AID 588502); assay type: functional
T1 sequence (P0AE70 whole entry): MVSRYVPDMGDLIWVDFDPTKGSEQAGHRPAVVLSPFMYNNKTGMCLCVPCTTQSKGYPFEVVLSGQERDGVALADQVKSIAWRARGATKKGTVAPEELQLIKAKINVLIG

[2] = target: 72 kDa type IV collagenase (Homo sapiens, UniProt P08253); test: Dose Response validation of uHTS RPN11 inhibitor hits using a MMP-2 Fluorescence assay.; assay type: functional
[3] = target: Prothrombin (Bos taurus, UniProt P00735); test: thrombin protease inhibitors – biochemical, fluorescence polarization, uHTS hits, dose response (AID 602369); assay type: functional
[4] = target: C-C chemokine receptor type 6 (Homo sapiens, UniProt P51684); test: antagonism of CCR6 beta-arrestin recruitment – cell-based, luminescent beta-arrestin readout, dose response (AID 504728); assay type: functional
[5] = target: 26S proteasome non-ATPase regulatory subunit 14 (Homo sapiens, UniProt O00487); test: inhibition of proteasome subunit RPN11 – biochemical, fluorescence polarization, uHTS hits, confirmation (AID 602368); assay type: functional
[6] = target: Beta-galactosidase (Escherichia coli, UniProt Q8VNN2); test: detection-enzyme interference by beta-gal modulators – biochemical, E. coli enzyme, set 3, artefact control for CCR6 antagonist project, dose response (AID 504712); assay type: functional
[7] = target: T1, Endoribonuclease toxin MazF; test: activation of MazEF endoribonuclease cleavage – biochemical, fluorescence, single-stranded RNA substrate, uHTS hits, dose response (AID 588481); assay type: functional
[8] = target: Cyclin-dependent kinase 5/CDK5 activator 1 (Homo sapiens, UniProt Q00535); test: blockade of human CDK5 activity – biochemical, cherry-picked samples, set 2, dose response (AID 504545)
[9] = target: Nucleotide-binding oligomerization domain-containing protein 2 (Homo sapiens, UniProt Q9HC29); test: PubChem AID 2334; assay type: functional
[10] = target: T2, Nucleotide-binding oligomerization domain-containing protein 1 (Homo sapiens, UniProt Q9Y239); test: blockers of NOD1 pathway activity – revised, SAR follow-up (AID 2333); assay type: functional
T2 sequence (Q9Y239 whole entry): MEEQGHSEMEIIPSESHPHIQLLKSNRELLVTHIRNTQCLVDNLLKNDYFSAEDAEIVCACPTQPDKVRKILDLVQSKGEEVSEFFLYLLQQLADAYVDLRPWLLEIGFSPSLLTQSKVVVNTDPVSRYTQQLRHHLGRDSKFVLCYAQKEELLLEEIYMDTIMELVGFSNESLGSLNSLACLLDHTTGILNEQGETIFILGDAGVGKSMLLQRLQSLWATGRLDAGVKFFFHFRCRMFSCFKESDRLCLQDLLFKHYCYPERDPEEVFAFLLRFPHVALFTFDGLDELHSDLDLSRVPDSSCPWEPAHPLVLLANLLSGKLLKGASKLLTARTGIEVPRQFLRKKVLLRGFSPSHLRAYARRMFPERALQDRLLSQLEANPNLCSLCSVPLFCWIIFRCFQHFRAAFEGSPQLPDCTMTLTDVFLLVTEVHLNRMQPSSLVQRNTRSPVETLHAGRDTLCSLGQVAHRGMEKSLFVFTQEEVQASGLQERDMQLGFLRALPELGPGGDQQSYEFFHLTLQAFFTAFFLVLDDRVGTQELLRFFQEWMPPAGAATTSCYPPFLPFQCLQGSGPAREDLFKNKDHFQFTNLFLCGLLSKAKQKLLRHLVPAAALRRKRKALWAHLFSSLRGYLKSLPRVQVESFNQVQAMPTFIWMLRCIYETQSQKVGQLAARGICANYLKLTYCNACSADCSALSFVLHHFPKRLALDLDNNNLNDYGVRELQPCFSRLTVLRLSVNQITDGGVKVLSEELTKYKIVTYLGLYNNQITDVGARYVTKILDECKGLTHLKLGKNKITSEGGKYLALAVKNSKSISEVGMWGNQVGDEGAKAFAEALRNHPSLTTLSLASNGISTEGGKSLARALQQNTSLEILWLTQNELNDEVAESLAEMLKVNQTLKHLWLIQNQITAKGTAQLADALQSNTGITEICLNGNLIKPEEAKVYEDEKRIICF

[11] = target: Tumor necrosis factor (Homo sapiens, UniProt P01375); test: analog potency on TNFa NF-kB signaling – cell-based, revised, SAR follow-up (AID 2337); assay type: functional
[12] = test system: HEK293; test: cells; settings: Homo sapiens;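 note: cells exposed to compound for 14 hours overnight before viability readout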
[13] = target: Dual specificity protein phosphatase 3 (Homo sapiens, UniProt P51452); test: inhibition constants for human DUSP3 – biochemical, colorimetric, SAR follow-up (AID 2004)
[14] = target: Voltage-gated N-type calcium channel alpha-1B subunit/Amyloid beta A4 precursor protein-binding family A member 1 (Homo sapiens, UniProt Q00975+Q02410); test: disruptors of Mint-PDZ/N-type channel peptide interaction – biochemical, HTRF, set 2, SAR follow-up (AID 434980); assay type: functional

Nucleotide-binding oligomerization domain-containing protein 2, sequence (Q9HC29 whole entry, the tested form may be a part): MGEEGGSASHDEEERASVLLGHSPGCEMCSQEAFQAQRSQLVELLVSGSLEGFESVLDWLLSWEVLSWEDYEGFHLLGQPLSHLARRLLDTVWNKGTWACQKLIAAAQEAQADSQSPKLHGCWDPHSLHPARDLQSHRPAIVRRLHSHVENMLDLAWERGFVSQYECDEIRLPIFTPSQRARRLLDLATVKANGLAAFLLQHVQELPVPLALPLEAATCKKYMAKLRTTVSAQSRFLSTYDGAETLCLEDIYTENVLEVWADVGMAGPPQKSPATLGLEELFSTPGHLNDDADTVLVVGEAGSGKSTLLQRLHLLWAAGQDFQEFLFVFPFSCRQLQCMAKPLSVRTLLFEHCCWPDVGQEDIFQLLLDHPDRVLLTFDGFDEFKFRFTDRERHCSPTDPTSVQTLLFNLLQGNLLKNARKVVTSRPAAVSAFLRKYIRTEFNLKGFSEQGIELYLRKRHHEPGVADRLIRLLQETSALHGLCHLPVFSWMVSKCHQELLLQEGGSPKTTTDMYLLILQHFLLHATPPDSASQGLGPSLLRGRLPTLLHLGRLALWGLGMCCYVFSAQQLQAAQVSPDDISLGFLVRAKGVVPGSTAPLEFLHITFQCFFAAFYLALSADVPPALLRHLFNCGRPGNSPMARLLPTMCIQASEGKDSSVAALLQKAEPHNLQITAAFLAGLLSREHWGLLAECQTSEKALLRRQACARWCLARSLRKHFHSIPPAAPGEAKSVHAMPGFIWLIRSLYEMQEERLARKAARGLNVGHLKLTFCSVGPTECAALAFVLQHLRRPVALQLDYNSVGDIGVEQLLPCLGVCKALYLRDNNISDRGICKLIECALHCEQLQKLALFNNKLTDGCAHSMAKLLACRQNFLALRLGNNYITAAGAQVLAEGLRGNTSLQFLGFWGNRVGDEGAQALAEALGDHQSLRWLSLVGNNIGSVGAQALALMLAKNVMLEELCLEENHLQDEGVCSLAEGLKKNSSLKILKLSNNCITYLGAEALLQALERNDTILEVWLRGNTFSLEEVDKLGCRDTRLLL
Cyclin-dependent kinase 5/CDK5 activator 1, sequence (Q00535 whole entry, the tested form may be a part): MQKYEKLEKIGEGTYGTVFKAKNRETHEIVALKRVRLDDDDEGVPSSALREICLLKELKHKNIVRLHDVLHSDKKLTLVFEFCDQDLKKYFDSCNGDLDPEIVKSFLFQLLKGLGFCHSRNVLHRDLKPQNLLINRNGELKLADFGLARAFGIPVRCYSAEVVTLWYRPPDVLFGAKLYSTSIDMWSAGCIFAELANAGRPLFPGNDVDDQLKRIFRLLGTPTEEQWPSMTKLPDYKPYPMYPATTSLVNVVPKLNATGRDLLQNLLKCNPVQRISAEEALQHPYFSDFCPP
Cyclin-dependent kinase 5/CDK5 activator 1, sequence (Q15078 whole entry, further chain, the tested form may be a part): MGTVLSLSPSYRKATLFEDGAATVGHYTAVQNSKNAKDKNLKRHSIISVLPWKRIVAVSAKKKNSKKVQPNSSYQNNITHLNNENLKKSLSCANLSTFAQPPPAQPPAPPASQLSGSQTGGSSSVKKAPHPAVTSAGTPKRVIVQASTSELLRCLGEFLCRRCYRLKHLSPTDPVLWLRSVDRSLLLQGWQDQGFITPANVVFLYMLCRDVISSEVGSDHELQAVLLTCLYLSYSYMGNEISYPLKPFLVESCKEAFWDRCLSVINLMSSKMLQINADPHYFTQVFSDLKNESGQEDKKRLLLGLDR
C-C chemokine receptor type 6, sequence (P51684 whole entry): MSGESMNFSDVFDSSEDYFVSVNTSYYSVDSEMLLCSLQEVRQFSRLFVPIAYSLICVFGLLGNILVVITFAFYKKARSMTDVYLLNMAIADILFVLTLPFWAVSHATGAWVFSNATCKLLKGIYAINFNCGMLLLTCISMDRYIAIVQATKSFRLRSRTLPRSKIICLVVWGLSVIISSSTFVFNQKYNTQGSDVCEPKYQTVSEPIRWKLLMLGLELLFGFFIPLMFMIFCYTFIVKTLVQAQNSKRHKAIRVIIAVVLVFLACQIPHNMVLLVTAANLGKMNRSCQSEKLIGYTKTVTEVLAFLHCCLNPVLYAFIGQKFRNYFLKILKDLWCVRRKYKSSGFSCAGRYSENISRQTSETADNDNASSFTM
26S proteasome non-ATPase regulatory subunit 14, sequence (O00487 whole entry): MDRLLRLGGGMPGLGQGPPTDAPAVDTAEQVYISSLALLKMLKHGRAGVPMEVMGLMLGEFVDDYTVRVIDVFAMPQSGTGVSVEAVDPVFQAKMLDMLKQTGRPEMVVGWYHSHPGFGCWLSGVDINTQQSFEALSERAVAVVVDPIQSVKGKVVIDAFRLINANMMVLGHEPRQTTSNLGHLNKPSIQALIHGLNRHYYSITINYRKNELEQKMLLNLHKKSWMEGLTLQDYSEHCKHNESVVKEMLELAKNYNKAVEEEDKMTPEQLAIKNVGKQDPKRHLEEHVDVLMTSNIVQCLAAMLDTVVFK
Tumor necrosis factor, sequence (P01375 whole entry): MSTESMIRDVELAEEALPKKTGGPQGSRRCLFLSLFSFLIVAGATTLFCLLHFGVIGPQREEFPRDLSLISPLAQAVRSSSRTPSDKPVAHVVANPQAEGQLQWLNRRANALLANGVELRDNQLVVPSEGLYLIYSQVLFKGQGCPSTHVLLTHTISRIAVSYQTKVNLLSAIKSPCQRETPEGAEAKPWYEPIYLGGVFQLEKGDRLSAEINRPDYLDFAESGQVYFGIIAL
Beta-galactosidase, sequence (Q8VNN2 whole entry): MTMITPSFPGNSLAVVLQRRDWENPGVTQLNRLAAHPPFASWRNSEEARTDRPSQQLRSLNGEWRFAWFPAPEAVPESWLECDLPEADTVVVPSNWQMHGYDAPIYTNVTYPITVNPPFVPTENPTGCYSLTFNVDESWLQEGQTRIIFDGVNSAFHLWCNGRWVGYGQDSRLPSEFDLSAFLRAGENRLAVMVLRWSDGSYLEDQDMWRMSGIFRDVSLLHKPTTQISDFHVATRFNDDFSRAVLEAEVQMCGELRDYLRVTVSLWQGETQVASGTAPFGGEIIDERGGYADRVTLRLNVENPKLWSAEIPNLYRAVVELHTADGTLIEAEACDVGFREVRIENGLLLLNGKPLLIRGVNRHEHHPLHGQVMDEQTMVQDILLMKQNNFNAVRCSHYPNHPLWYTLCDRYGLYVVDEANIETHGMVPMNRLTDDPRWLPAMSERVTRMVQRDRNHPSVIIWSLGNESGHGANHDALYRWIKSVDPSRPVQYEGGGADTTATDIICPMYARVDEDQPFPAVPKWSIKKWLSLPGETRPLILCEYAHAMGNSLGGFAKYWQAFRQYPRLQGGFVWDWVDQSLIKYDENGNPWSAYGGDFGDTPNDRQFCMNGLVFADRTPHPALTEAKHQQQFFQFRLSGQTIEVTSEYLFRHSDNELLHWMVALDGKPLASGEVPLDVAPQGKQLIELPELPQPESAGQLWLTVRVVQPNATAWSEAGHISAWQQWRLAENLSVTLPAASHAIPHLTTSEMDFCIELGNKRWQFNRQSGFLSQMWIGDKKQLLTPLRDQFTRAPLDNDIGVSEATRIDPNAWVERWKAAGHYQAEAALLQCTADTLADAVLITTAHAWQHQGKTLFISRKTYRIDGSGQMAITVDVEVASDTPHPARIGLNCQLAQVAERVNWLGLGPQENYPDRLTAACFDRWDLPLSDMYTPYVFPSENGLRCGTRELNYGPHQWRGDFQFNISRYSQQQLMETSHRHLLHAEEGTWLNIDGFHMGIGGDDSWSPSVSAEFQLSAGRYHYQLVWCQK
Dual specificity protein phosphatase 3, sequence (P51452 whole entry): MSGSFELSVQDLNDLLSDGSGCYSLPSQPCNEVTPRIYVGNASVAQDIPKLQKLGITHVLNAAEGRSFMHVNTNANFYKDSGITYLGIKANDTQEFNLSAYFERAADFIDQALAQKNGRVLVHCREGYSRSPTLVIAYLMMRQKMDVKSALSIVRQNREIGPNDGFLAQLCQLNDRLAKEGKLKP
72 kDa type IV collagenase, sequence (P08253 whole entry): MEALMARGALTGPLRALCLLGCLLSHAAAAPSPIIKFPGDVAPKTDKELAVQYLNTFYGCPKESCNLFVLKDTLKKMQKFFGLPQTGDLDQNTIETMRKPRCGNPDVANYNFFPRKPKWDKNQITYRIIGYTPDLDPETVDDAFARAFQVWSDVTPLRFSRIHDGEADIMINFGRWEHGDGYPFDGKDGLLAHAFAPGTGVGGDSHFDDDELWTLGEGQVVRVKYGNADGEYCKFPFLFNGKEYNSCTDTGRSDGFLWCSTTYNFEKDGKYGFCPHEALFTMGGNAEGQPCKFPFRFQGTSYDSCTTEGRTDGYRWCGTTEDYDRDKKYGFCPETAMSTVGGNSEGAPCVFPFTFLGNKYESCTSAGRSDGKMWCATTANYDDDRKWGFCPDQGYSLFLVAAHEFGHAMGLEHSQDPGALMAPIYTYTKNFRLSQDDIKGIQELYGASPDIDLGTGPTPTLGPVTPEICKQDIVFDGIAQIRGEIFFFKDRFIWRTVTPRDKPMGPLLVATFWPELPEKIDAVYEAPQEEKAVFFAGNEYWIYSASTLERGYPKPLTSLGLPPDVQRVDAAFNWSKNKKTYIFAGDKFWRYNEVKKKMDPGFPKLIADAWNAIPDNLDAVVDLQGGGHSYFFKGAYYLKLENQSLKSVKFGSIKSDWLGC

## COc1ccccc1C(=O)/N=C(\N)Nc1nc2ccccc2o1
[1]
  EC50: > 99 µM (inactive)
[2]
  IC50: > 100 µM (inactive)
[3]
  IC50: 60.9 µM (active)
[4]
  IC50: > 66.6 µM (inactive)
[5]
  IC50: 38.3 µM (active)
[6]
  IC50: > 66.6 µM (inactive)
[7]
  EC50: > 99 µM (inactive)

## CC(C)n1cnc2c(Nc3cccc(Cl)c3)nc(NCCCO)nc21
[8]
  AC50: 2.59 µM (active)

## O=C(Nc1sc2c(c1C(=O)O)CCCC2)C(=O)N1CCOCC1
[9]
  IC50: > 20 µM (inactive)
[10]
  IC50: > 20 µM (inactive)
[11]
  IC50: > 20 µM (inactive)
[12]
  IC50: > 20 µM (inactive)

## O=C1NC(=S)/C(=C\c2ccc(-c3ccc([N+](=O)[O-])cc3)o2)S1
[13]
  Ki: 1.86 µM (active)

## CN1CCCC1CCNC(=O)c1cc(-c2ccco2)nc2ccccc12 (centres undefined)
[14]
  IC50: 24.5 µM (active)

From ChEMBL document CHEMBL1201862, “PubChem BioAssay data set” (2004)
